Test systems include SW-620; SNB-78; SK-MEL-2; OVCAR-8; SK-MEL-5; IGROV-1; M14; RXF 393; DMS-114; SNB-19; HT-29; MOLT-4; HCC 2998; SN12C; U-251.
Common to all, as to assay: NCI-60 cell line screen, 48 h

These results are taken from ChEMBL document CHEMBL1201862, “PubChem BioAssay data set” (2004).

Each structure is given as a SMILES string.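 Following 48 hours of exposure in 96-well plates, responses at five concentrations were used to interpolate endpoints linearly. GI50: concentration for 50% inhibition of growth.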 Activity calls are given as the source filed them. Rule as the data show it: active = GI50 up to about 1.1 µM and inactive = higher. Bounds are passed on as bounds.

In the case of `O=C1/C(=C/c2ccc(Cl)cc2)CCC1CCN1CCOCC1` (stereo unspecified), the GI50 in the experiment on SW-620 is > 100 µM (inactive); with SNB-78, > 100 µM (inactive); in the experiment on SK-MEL-2, > 100 µM (inactive); with OVCAR-8, > 100 µM (inactive); in the experiment with SK-MEL-5, 55.5 µM (inactive); in the experiment with IGROV-1, > 100 µM (inactive). The GI50 in the experiment with M14 was > 100 µM (inactive); in the experiment with RXF 393, 47.9 µM (inactive); in the experiment with DMS-114, 28.7 µM (inactive); with SNB-19 it was > 100 µM (inactive); with HT-29, 32.8 µM (inactive); with MOLT-4, 26.1 µM (inactive). Also, the GI50 with HCC 2998 was 46.9 µM (inactive); in the experiment with SN12C, 72.1 µM (inactive).
Regarding `COc1ccc(CN(CCN(C)C)c2ccccn2)cc1.Cn1c(=O)c2[nH]c(Br)nc2n(C)c1=O`, the GI50 in the experiment with SW-620, in the experiment on SNB-78, in the experiment with SK-MEL-2, with OVCAR-8, in the experiment with SK-MEL-5 and in the experiment with IGROV-1 was > 100 µM (inactive) each time. The GI50 in the experiment with M14, with U-251, with DMS-114, with SNB-19, with HT-29 and with MOLT-4 was > 100 µM (inactive) each time. In addition, in the experiment with SN12C, the GI50 is > 100 µM (inactive).
For `COc1ccc2c(c1)c(Cc1c(C)n(C)c3ccc(OC)cc13)c(C)n2C`, the GI50 in the experiment on SW-620, in the experiment with SNB-78, in the experiment with SK-MEL-2, with OVCAR-8, in the experiment on SK-MEL-5 and in the experiment with IGROV-1 was > 100 µM (inactive) throughout. The GI50 with M14 is > 100 µM (inactive); with RXF 393, 47.8 µM (inactive); in the experiment on U-251, > 100 µM (inactive); with DMS-114, > 100 µM (inactive); with SNB-19 it was > 100 µM (inactive); in the experiment on HT-29, > 100 µM (inactive). In addition, the GI50 in the experiment with MOLT-4 and with SN12C was > 100 µM (inactive) throughout.
Turning to `Cc1cc(=O)n(-c2cc3cccccc-3n2)[nH]1`, the GI50 in the experiment on SW-620 is 3.73 µM (inactive); with OVCAR-8 it was 5.53 µM (inactive); in the experiment on SK-MEL-5, 2.05 µM (inactive); with IGROV-1, 2.78 µM (inactive); in the experiment on M14, 4.42 µM (inactive); in the experiment on RXF 393, 2.36 µM (inactive). The GI50 is 2.04 µM (inactive) in the experiment with U-251; 2.38 µM (inactive) in the experiment on DMS-114; 43.6 µM (inactive) in the experiment with SNB-19; 13.5 µM (inactive) with HT-29; 4.3 µM (inactive) in the experiment with MOLT-4; 12.1 µM (inactive) in the experiment with HCC 2998. Moreover, the GI50 in the experiment on SN12C is 5.74 µM (inactive).
With `CC12N=NNC1C(=O)NC2=O` (stereo unspecified), the GI50 with SW-620, in the experiment with SNB-78, in the experiment on SK-MEL-2, in the experiment on OVCAR-8, with SK-MEL-5 and with IGROV-1 was > 100 µM (inactive) in each case. Further, the GI50 with U-251, in the experiment with DMS-114, in the experiment on SNB-19, with HT-29, in the experiment with MOLT-4 and in the experiment with HCC 2998 was > 100 µM (inactive) in each case. Moreover, in the experiment on SN12C, the GI50 is > 100 µM (inactive).
On to `CCCCCCC(=O)C/C(=N/NC(N)=S)C(=O)NC1C2CC3CC(C2)CC1C3` (stereo unspecified), for which the GI50 in the experiment on SW-620, with SNB-78, in the experiment with SK-MEL-2, in the experiment on OVCAR-8, with SK-MEL-5 and in the experiment on IGROV-1 was > 100 µM (inactive) each time. Also, the GI50 in the experiment with M14, with RXF 393, with U-251, with SNB-19, in the experiment on HT-29 and in the experiment on MOLT-4 was > 100 µM (inactive) in each case. The GI50 in the experiment with HCC 2998 and in the experiment on SN12C was > 100 µM (inactive) in each case.
For the molecule `CCCCCC/C=C1\CCC(CN2CCOCC2)C1=O` (stereo unspecified), the GI50 is 8.2 µM (inactive) with SW-620; 21.8 µM (inactive) in the experiment on SNB-78; 18.7 µM (inactive) with SK-MEL-2; 16.8 µM (inactive) in the experiment on OVCAR-8; 18.1 µM (inactive) in the experiment on SK-MEL-5; 19 µM (inactive) in the experiment with IGROV-1. Besides, the GI50 was 14.6 µM (inactive) in the experiment on M14; 15.5 µM (inactive) with U-251; 17.3 µM (inactive) in the experiment on DMS-114; 18.6 µM (inactive) with SNB-19; 17.7 µM (inactive) in the experiment on HT-29; 5.26 µM (inactive) in the experiment with MOLT-4. The GI50 in the experiment with HCC 2998 was 19.2 µM (inactive); with SN12C, 17.2 µM (inactive).
In the case of `COc1cccc2c1C(=O)c1c(O)c3c(c(O)c1C2=O)C[C@@](O)(C(=O)CO)CC3OC1CC(NCCOCC(OC(C)=O)OC(C)=O)C(O)C(C)O1` (stereo partly specified), the GI50 in the experiment on SW-620, in the experiment with SK-MEL-2, with OVCAR-8, in the experiment on SK-MEL-5, in the experiment on IGROV-1 and in the experiment with M14 was < 0.01 µM (active) throughout. The GI50 in the experiment on RXF 393 is < 0.01 µM (active); in the experiment with U-251 it was 0.00925 µM (active); in the experiment with DMS-114, < 0.01 µM (active); in the experiment on SNB-19, 0.00782 µM (active); with HT-29, < 0.01 µM (active); with MOLT-4, < 0.01 µM (active). Further, the GI50 in the experiment with HCC 2998 and in the experiment with SN12C was < 0.01 µM (active) each time.
Consider `CC(C)(C)OC(=O)C#CC[C@H]1CCCC1/C=C/C(O)=C1/C(=O)NC(CCCNC(=O)OC(C)(C)C)C1=O` (stereo partly specified), for which the GI50 with SW-620 was 38.5 µM (inactive); in the experiment on SK-MEL-2, 16.6 µM (inactive); in the experiment on OVCAR-8, 15.2 µM (inactive); with SK-MEL-5 it was 47.8 µM (inactive); in the experiment with IGROV-1, 39.5 µM (inactive); with M14 it was 45.7 µM (inactive). For the same molecule, the GI50 in the experiment with RXF 393 was 14.7 µM (inactive); in the experiment on U-251, 25.9 µM (inactive); with DMS-114, 21.3 µM (inactive); with SNB-19 it was 30.6 µM (inactive); in the experiment on HT-29, 40.1 µM (inactive); with MOLT-4 it was 32.1 µM (inactive). Further, the results for the GI50 in the experiment on HCC 2998 and with SN12C were 42.9 µM (inactive) and 40.1 µM (inactive), respectively.
For the molecule `O=C(NN1C(=O)C(Cl)C1c1c(O)ccc2ccccc12)c1ccccc1O` (stereo unspecified), the GI50 in the experiment with SNB-78, in the experiment with SK-MEL-2, in the experiment with OVCAR-8, in the experiment with SK-MEL-5, in the experiment on IGROV-1 and in the experiment with M14 was > 100 µM (inactive) throughout. The GI50 with RXF 393, in the experiment on U-251, with DMS-114, in the experiment with SNB-19, with HT-29 and in the experiment on MOLT-4 was > 100 µM (inactive) throughout. Also, the GI50 with SN12C was > 100 µM (inactive).
